Measured values: article PMC8786932, “Bicyclic azetidines target acute and chronic stages of Toxoplasma gondii by inhibiting parasite phenylalanyl t-RNA synthetase” (Nature Communications, 2022)
pEC50: −log10 of the molar value. Values joined by “and” are separate entries in the source; they are usually repeats but may differ in a detail not shown here. Identical values can stand only once. Like-named read-outs stand apart in the source and are kept apart here.

How the values were obtained:
[1] = molecular target: T. gondii tachyzoites (type II ME49-FLuc); assay: Luciferase-based tachyzoite growth assay; assay type: cell-based, Toxoplasma gondii; parameters: EC50 log inhib vs normalized response: unit: µM; details: for EC50 log inhib vs normalized response: Fig 1A rank order, T. gondii growth
Experimental: All assays were carried out in a 96-well plate format containing confluent HFF monolayers to support parasite growth. To avoid edge effects, only the inner 60 wells of each plate were used. All compounds described were provided by the Broad Institute as 10 mM stocks in 100% DMSO and stored at −80 °C prior to use. Pyrimethamine (Sigma-Aldrich) was prepared as 5 mM stock in 100% DMSO and stored at −20 °C prior to use.
All statistical analyses were conducted using Prism 9 (GraphPad Software, Inc.). Dose–response inhibition curves for parasite and host cell toxicity screens (EC50 values) were generated using (Log(inhibitor) vs. normalized response—Variable slope) function. […] For multiple comparisons, two-way ANOVA analysis function using either Sidák’s multiple comparisons test or Dunnett’s multiple comparisons test was applied as indicated.

[2] = molecular target: N. caninum expressing lacZ; assay: Neospora caninum β-galactosidase assay; assay type: cell-based
Experimental: β-galactosidase assays were conducted using tissue culture grade 96-well plates (TPP) containing confluent monolayers of HFF cells. A 10-point compound dilution series (2-fold) for each compound was generated as described above (2X concentration, 0.1% final DMSO). Growth of the N. caninum strain expressing lacZ was monitoring using a β-galactosidase (β-gal) assay as described in[21] with the following modifications. N. caninum lacZ expressing parasites (1 × 10^3) were added (in 100 μL volume) into 96-well plates containing HFF monolayers to reach final compound concentration (5.0 μM to 0.002 μM in 200 μL total volume). Plates were incubated at 37 °C, 5% CO2 for 72 h prior to completing β-gal assay as previously described[23],[27],[51]. Briefly, parasite containing monolayers were lysed with 1.0% Triton X-100 and β-gal activity determined by adding 1 mM chlorophenolred-β-D-galactopyranoside followed by monitoring absorption at 570 nm on a Cytation 3 multi-mode imager (BioTek), as described.

[3] = system: blood-stage P. falciparum; details: Fig 2A Tg_Pf_Cp EC50s; previously reported values, reference not visible in the shown part; cited from earlier work
C. parvum = details: Fig 2A Tg_Pf_Cp EC50s; previously reported values, reference not visible in the shown part; cited from earlier work
[4] = system: ex vivo T. gondii ME49-FLuc bradyzoites from tissue cysts of chronically infected mice; assay: Ex vivo bradyzoite treatment assay (plaque assay); assay type: cell-based, Toxoplasma gondii; details: Fig 5H top 4, replicates, listed as Pyr
Experimental: The brains from CBA/J mice chronically infected with the ME49-FLuc strain were harvested, homogenized, and tissue cysts isolated on Percoll gradients, as described previously[9],[27]. Following isolation, purified tissue cysts were treated with acid-pepsin solution ([…] sodium chloride (NaCl), 60 mM hydrochloric acid (HCl) and freshly made pepsin (0.1 mg/mL in 1xPBS) for 10 min at 37 °C. Following acid-pepsin treatment and addition of neutralization buffer (94 mM sodium carbonate (Na2CO3), liberated bradyzoites were equally distributed into 6-well plates with 5 mL culture media containing compounds or vehicle control (0.1–0.2% DMSO final concentration). Plates were incubated undisturbed for 12–14 days followed by fixation in 100% ethanol (ETOH) for 5 min at RT, rinsing with tap water, staining in 0.1% crystal violet solution for 10 min at RT, rinsing in water and air drying. Plaques were quantified on a Zeiss AxioObserver microscope equipped with a ×2.5 objective (Department of Molecular Microbiology Imaging Facility at the Washington University School of Medicine).

[5] = system: T. gondii ME49-FLuc chronic infection; assay type: in vivo, Ifngr1-/- mice; details: mouse, in vivo
Experimental: (§1) Ifngr1^−/− (B6.129S7-Ifngr1 ^tm1Agt /J) and CBA/J mice were purchased from Jackson Laboratory and bred locally at Washington University. Animal studies were conducted according to the U.S. Public Health Service policy on human care and use of laboratory animals. Animals were maintained in facilities approved by the Association for Assessment and Accreditation of Laboratory Animal Care. Studies were approved by Division of Comparative Medicine, Washington University. […] Animals were maintained on a 12:12 light cycle, room temperature maintained at 70℉ ± 2℉, and room humidity maintained at 50% ± 20%.
(§2) Testing of compounds to prevent reactivation of chronic infection was […] to test the efficacy of PheRS inhibitors against chronic infection. In both cases, male and female C57BL/6 Ifngr1^−/− mice were infected by oral gavage with 5 cysts of the ME49-Fluc strain isolated from chronically infected CBA/J mice. […] Animals were monitored for survival and weight loss for 30 days post-treatment.

[6] = system: T. gondii ME49-FLuc tissue cysts; assay type: in vivo, Ifngr1-/- mice; details: mouse, in vivo
Experimental: as §1, §2

[7] = Fig S2 source data, read-out: T. gondii (EC50, Fig S2 source data)
[8] = Table S1, ME49-FLuc tachyzoites, read-out: T. gondii EC50
[9] = Fig S2 source data, read-out: N. caninum (EC50, Fig S2 source data)
[10] = Table S3, 72 h, lacZ, read-out: N. caninum EC50
[11] = Toxoplasma gondii, Table S1, ME49-FLuc tachyzoites, read-out: T. gondii EC50
[12] = Fig 2A Tg_Pf_Cp EC50s, read-out: EC50 T. gondii
[13] = Toxoplasma gondii, Fig. 2b, stereoisomers of BRD3444, mean of two biological replicates, read-out: Tg EC50

| SMILES | EC50 log inhib vs normalized response [1] | pEC50 [1, 8] | pEC50 [3] | pEC50 [1, 11] | pEC50 [1, 12] | also measured |
| --- | --- | --- | --- | --- | --- | --- |
| COc1ccc(NC(=O)N2CCCCCN3[C@H](CO)[C@H](c4ccc(C#Cc5ccccc5)cc4)[C@@H]3C2)cc1 [BRD0185] | 0.1693 | 6.77 | 7.06 | – | – | pEC50 [1, 7]: 6.77; pEC50 [2, 9]: 6.81; pEC50 [2, 10]: 6.81; pEC50 (C. parvum): 7.48 |
| COc1ccc(NC(=O)N2CCCCN3[C@@H](CO)[C@@H](c4ccc(C#Cc5ccccc5)cc4)[C@@H]3C2)cc1 [BRD2430] | 1.548 | – | – | 5.81 | – | – |
| COc1ccc(NC(=O)N2CCCCN3[C@H](CO)[C@@H](c4ccc(C#Cc5ccccc5)cc4)[C@@H]3C2)cc1 [BRD2574] | 1.487 | – | – | 5.83 | – | – |
| COc1ccc(NC(=O)N2CCCCN3[C@H](CO)[C@H](c4ccc(C#Cc5ccccc5)cc4)[C@]3(CO)C2)cc1 [BRD2936] | 1.687 | – | 5.73 | – | 5.77 | pEC50 (C. parvum): 5.97 |
| COc1ccc(NC(=O)N2CCCCN3[C@H](CO)[C@H](c4ccc(C#Cc5ccccc5)cc4)[C@H]3C2)cc1 [BRD3182] | 1.697 | – | – | 5.77 | – | – |
| COc1ccc(NC(=O)N2CCCCN3[C@H](C2)[C@@H](c2ccc(C#Cc4ccccc4)cc2)[C@@H]3CO)cc1 [BRD3801] | 4.096 | – | – | 5.39 | – | – |
| COc1ccc(NC(=O)N2CCCCN3C[C@H](c4ccc(C#Cc5ccccc5)cc4)[C@@H]3C2)cc1 [BRD3914] | 0.07697 | 7.12 | 7.89 | – | – | pEC50 [1, 7]: 7.11; pEC50 [2, 9]: 6.71; pEC50 [2, 10]: 6.71; pEC50 (C. parvum): 7.21 |
| COc1ccc(NC(=O)N2CCCCN3[C@H](C2)[C@H](c2ccc(C#Cc4ccccc4)cc2)[C@@H]3CO)cc1 [BRD4569] | 3.376 | – | – | 5.47 | – | pEC50 [1, 13]: 5.47 |
| COc1ccc(NC(=O)N2CCCCN3[C@H](CO)[C@H](c4ccc(C#Cc5ccccc5C#N)cc4)[C@@H]3C2)cc1 [BRD4873] | 0.2134 | 6.67 | 6.58 | – | 6.67 | – |
| COc1ccc(NC(=O)N2C[C@@H](O)[C@@H](O)CN3[C@H](CN(C)C)[C@H](c4ccc(C#Cc5ccccc5)cc4)[C@@H]3C2)cc1 [BRD5018] | 0.03927 | 7.41 | 7.89 | – | – | pEC50 [1, 7]: 7.41; pEC50 [2, 9]: 7.53; pEC50 [2, 10]: 7.54 |
| OC[C@@H]1[C@H](c2ccc(C#Cc3ccccc3)cc2)[C@@H]2CN(c3nc4ccccc4s3)CCCCN12 [BRD5349] | 3.944 | – | 5.08 | – | 5.40 | – |
| COc1ccc(NC(=O)N2CCCCN3[C@H](CO)[C@H](c4ccc(C#CC5CC5)cc4)[C@@H]3C2)cc1 [BRD5774] | 1.609 | – | 4.91 | – | 5.79 | – |
| O=C(Nc1cccc(F)c1)N1CCCCN2[C@H](CO)[C@H](c3ccc(C#Cc4cccnc4)cc3)[C@@H]2C1 [BRD5999] | 0.4926 | 6.31 | – | – | – | – |
| COc1ccc(NC(=O)N2CCCCN3[C@H](CN4CCN(C)CC4)[C@H](c4ccc(C#Cc5ccccc5)cc4)[C@@H]3C2)cc1 [BRD6479] | 0.4249 | 6.37 | 6.80 | – | 6.37 | – |
| COc1ccc(NC(=O)N2CCCCN3[C@H](CO)[C@@H](c4ccc(C#Cc5ccccc5)cc4)[C@H]3C2)cc1 [BRD8194] | 2.955 | – | – | 5.53 | – | – |
| O=C(NC1CCC1)N1CCCCN2[C@H](CO)[C@H](c3ccc(C#Cc4ccccc4)cc3)[C@@H]2C1 [BRD8260] | 2.575 | – | 4.71 | – | 5.59 | – |
| COc1ccc(NC(=O)N2CCCCN3[C@H](CN4CCC4)[C@H](c4ccc(C#Cc5ccccc5)cc4)[C@@H]3C2)cc1 [BRD8493] | 0.4416 | 6.36 | 6.94 | – | 6.35 | – |
| COc1ccc(NC(=O)N2CCCCN3[C@@H](CO)[C@H](c4ccc(C#Cc5ccccn5)cc4)[C@@H]3C2)cc1 [BRD9257] | 0.6463 | 6.19 | 6.81 | – | 6.19 | – |
| COc1ccc(NC(=O)N2CCCN3[C@H](CO)[C@H](c4ccc(C#Cc5ccccc5)cc4)[C@@H]3C2)cc1 [BRD9599] | 1.748 | – | 6.07 | – | 5.76 | pEC50 (C. parvum): 6.60 |
| COc1ccc(NC(=O)N2CCCCN3[C@@H](CO)[C@H](c4ccc(C#Cc5ccccc5)cc4)[C@@H]3C2)cc1 [BRD9995] | 0.1187 | – | – | 6.93 | – | pEC50 [1, 13]: 6.92 |
| CCc1nc(N)nc(N)c1-c1ccc(Cl)cc1 [Pyrimethamine, reference compound] | 0.2476 | – | – | 6.61 | – | pEC50 ([1]; Toxoplasma gondii, ME49-FLuc, 10-point dose-response, two biological replicates, read-out: EC50, T. gondii tachyzoite growth): 6.61; Ex vivo bradyzoite plaques, normalised to DMSO = 100 ([4]; Constant treatment): 2.0 and 0.5 and 1.9; Ex vivo bradyzoite plaques, normalised to DMSO = 100 ([4]; Washout): 115.2 and 93 and 95.5 |
| Nc1ccc(S(=O)(=O)Nc2ncccn2)cc1 [sulfadiazine, reference compound] | – | – | – | – | – | Days (survival time of single mouse) [5]: 7 days and 9 days and 29 days and 11 days and 5 days; Survival event flag of single mouse (1 or 0) [5]: 1 and 0; mean survival [6]: 10 days |
